Measured values taken from US8530183B2, “Zinc sensors for cellular imaging” (The Board of Regents of the University of Texas System, priority 2010, dated 2013).

Legend:
pancreatic islets = test: Confocal imaging of dye uptake and insulin/Zn2+ release in pancreatic islets; format: cell-based, mouse
Procedure: FIGS. 8A-C. Imaging insulin/Zn^2+ release in islets by confocal laser scanning microscopy. (FIGS. 8A-B) Confocal images of mouse islets labeled with ZIMIR (FIG. 8A) or calcein/AM (FIG. 8B). (FIG. 8C) Confocal ZIMIR imaging of insulin/Zn^2+ release in a mouse islet bathed in SAB. Images from two example layers 15 μm apart before and 10 sec post KCl (40 mM) stimulation were shown.
FIG. 11. ZIMIR rapidly labels cells of intact human islets. Representative CLSM images of a ZIMIR labeled human islet at three focal planes 20 μm apart.
Islets labeling and ZIMIR imaging by confocal laser scanning microscopy. Experiments with rodent animals were carried out according to protocols approved by the Institutional Animal Care and Use Committee of University of Texas Southwestern Medical Center. Rodent islets were isolated from Sprague-Dawley rats or C57BL/6 mice after digesting exocrine tissues of pancreas using collagenase as described below. To image insulin release in islets, the inventors labeled islets with ZIMIR (final concentration 2 μM with 0.025% Pluronic) in SAB buffer for […]. Labeled islets were then transferred to an imaging dish that had been coated with 0.5% PuraMatrix peptide hydrogel (BD Biosciences, Cat # 354250). Islets adhered to the PuraMatrix hydrogel within 5 min. They then imaged ZIMIR fluorescence by confocal laser scanning microscopy using a LSM510 imaging system (Carl Zeiss) and a 40× oil immersion objective (Dakin and Li, 2007).
Confocal imaging of ZIMIR uptake and insulin/Zn^2+ release in pancreatic islets. In addition to cultured cells, ZIMIR also rapidly and noninvasively labels cells in preparations such as dissected pancreatic islets. After loading islets with ZIMIR (2 μM) for 25 min, the inventors applied CLSM to track the distribution of ZIMIR in three dimensions (3D). […] The result confirmed that ZIMIR readily diffused through the interstitial space to reach interior cells, whereas calcein/AM was trapped by cells in the outer layer, unable to penetrate any deeper. After labeling, the inventors depolarized cells with high concentration of KCl.

MIN6 cells = test: Cellular uptake and membrane labeling followed by confocal laser scanning microscopy; format: cell-based, mouse
Procedure: FIGS. 4A-F. ZIMIR labels plasma membranes of intact living cells rapidly, non-invasively and stably. ZIMIR (1 μM) was added to MIN6 cells in FIBS buffer (containing ˜1 μM Zn^2+ enhance fluorescence intensity). Confocal images (Ex 488 nm, Em 510-550 nm) were subsequently acquired at 2 min (FIG. 4A), 5 min (FIG. 4B), 10 min (FIG. 4C), and 20 min (FIG. 4D). Cells were then washed with FIBS buffer three times and imaged again at 21 min (FIG. 4E), and 140 min (FIG. 4F).
Cell culture and ZIMIR imaging by wide field fluorescence microscopy. Details of cell culture are described below. For cell imaging, we cultured cells in 35 mm petri dishes with glass-bottoms (MatTek, Ashland, Mass.). To label cells with ZIMIR, cells were washed with a Secretion Assay Buffer (SAB) containing 114 mM NaCl, 4.7 mM KCl, 1.2 mM KH2PO4, 2.5 mM CaCl2, 1.16 mM MgSO4, 3 mM glucose, and 20 mM HEPES (pH 7.4). The DMSO stock solution of ZIMIR. (1-2 mM) diluted in a small volume of SAB was added to cells to a final concentration of 1 μM. Cells were then incubated at ˜25° C. for 20 min and washed with SAB before imaging. To image insulin/Zn^2+ secretion, we routinely included 10 μM of EDTA in SAB to chelate the residual Zn^2+ and to reduce the baseline fluorescence. In addition, DPAS (2-4 μM) was added to SAB in some experiments to better resolve the dynamics of oscillatory insulin release.
ZIMIR uptake and Zn2+ response in live cells. To examine the cellular uptake of ZIMIR, the inventors used a mouse insulinoma cell line, MIN6 (Miyazaki et al., 1990). When ZIMIR was incubated with cells at 1 μM concentration, it rapidly adhered to the cell surface of intact living cells (data not shown). In order to test the specificity and stability of membrane labeling, the inventors used confocal laser scanning microscopy (CLSM) to follow the cellular uptake and distribution of ZIMIR in MIN6 cells (FIGS. 4A-F). Within 5 min after probe addition, there was already a clear accumulation of ZIMIR along the plasma membrane (FIGS. 4A-B). By 20 min, the cellular uptake of ZIMIR appeared to reach completion (FIGS. 4C-D). […]

## CCCCCCCCCCCCN(CC(=O)O)Cc1c2oc3c(CN(CCCCCCCCCCCC)CC(=O)O)c(O)ccc3c(-c3cc(NCCN(CCc4ccccn4)Cc4ccccn4)ccc3C(=O)O)c-2ccc1=O [ZIMIR]
Pancreatic islets; ZIMIR 2 μM for 25 min, mouse and human islets
  distribution of dye in islets (3D, CLSM): taken up by cells throughout the islets, from the mantle to the core
Pancreatic islets; mouse islet, high concentration of KCl (40 mM)
  ZIMIR fluorescence change in islets upon KCl depolarization: robust and synchronized enhancement of ZIMIR fluorescence
MIN6 cells; 1 μM ZIMIR, MIN6 cells, CLSM
  time to clear accumulation along the plasma membrane: ≤ 5 min
  time to completion of cellular uptake: ≤ 20 min
MIN6 cells; repetitive washings after labeling
  membrane retention upon washing: did not change membrane fluorescence intensity
